From PubChem BioAssay AID248 (DTP/NCI, 2004)
Where “and” joins values, the source holds several entries; their conditions need not be identical. Identical values can stand only once. Toxic doses and inconclusive results are not listed. No stated cut-off is given here; in the data, active means T/C of 150% or more; inactive means T/C below 125%.

Tested on: L1210 leukemia ip in BDF1 mice, survival T/C
Assay: NCI In Vivo Anticancer Drug Screen. Data for tumor model L1210 Leukemia (intraperitoneal) in B6D2F1 (BDF1) mice
Details: endpoint: mean survival time, higher = longer survival
How it was run: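 Read-out is survival time, reported as the treated-group measurement over the vehicle-control measurement.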

[1] = dose: 100.0 mg/kg/injection, schedule: Q04DX003 (ip), vehicle: saline with Tween-80
[2] = dose: 200.0 mg/kg/injection, schedule: Q04DX003 (ip), vehicle: saline with Tween-80
[3] = dose: 50.0 mg/kg/injection, schedule: Q01DX009 (ip), vehicle: saline with Tween-80
[4] = dose: 100.0 mg/kg/injection, schedule: Q01DX009 (ip), vehicle: saline with Tween-80
[5] = dose: 200.0 mg/kg/injection, schedule: Q01DX009 (ip), vehicle: saline with Tween-80
[6] = dose: 12.5 mg/kg/injection, schedule: Q04DX003 (ip), vehicle: saline
[7] = dose: 25.0 mg/kg/injection, schedule: Q04DX003 (ip), vehicle: saline
[8] = dose: 100.0 mg/kg/injection, schedule: Q01DX001 (ip), vehicle: Klucel (hydroxypropylcellulose) (HPC)
[9] = dose: 200.0 mg/kg/injection, schedule: Q01DX001 (ip), vehicle: Klucel (hydroxypropylcellulose) (HPC)
[10] = dose: 400.0 mg/kg/injection, schedule: Q01DX009 (ip), vehicle: saline with Tween-80
[11] = dose: 100.0 mg/kg/injection, schedule: Q01DX001 (ip), vehicle: saline
[12] = dose: 200.0 mg/kg/injection, schedule: Q01DX001 (ip), vehicle: saline
[13] = dose: 400.0 mg/kg/injection, schedule: Q01DX001 (ip), vehicle: saline
[14] = dose: 100.0 mg/kg/injection, schedule: Q01DX009 (ip), vehicle: Klucel (hydroxypropylcellulose) (HPC)
[15] = dose: 200.0 mg/kg/injection, schedule: Q01DX009 (ip), vehicle: Klucel (hydroxypropylcellulose) (HPC)
[16] = dose: 50.0 mg/kg/injection, schedule: Q01DX009 (ip), vehicle: Klucel (hydroxypropylcellulose) (HPC)
[17] = dose: 50.0 mg/kg/injection, schedule: Q01DX001 (ip), vehicle: saline

Measured: T/C

CC(=O)N(C)c1ccc(C)cc1C
inactive: [1] 104 % of control | [2] 98 % of control | dose: 400.0 mg/kg/injection, schedule: Q04DX003 (ip), vehicle: saline with Tween-80 93 % of control

CNCc1ccccc1Cc1ccccc1
inactive: dose: 75.0 mg/kg/injection, schedule: Q01DX001 (ip), vehicle: saline 100 % of control | dose: 150.0 mg/kg/injection, schedule: Q01DX001 (ip), vehicle: saline 97 % of control | dose: 300.0 mg/kg/injection, schedule: Q01DX001 (ip), vehicle: saline 95 % of control

[Cl][Hg][CH2]CC1CC=CCC1 (stereo not drawn)
inactive: dose: 3.13 mg/kg/injection, schedule: Q01DX009 (ip), vehicle: saline sonified 92 % of control | dose: 6.25 mg/kg/injection, schedule: Q01DX009 (ip), vehicle: saline sonified 94 % of control | dose: 6.25 mg/kg/injection, schedule: Q04DX003 (ip), vehicle: Klucel (hydroxypropylcellulose) (HPC) 98 % of control | dose: 12.5 mg/kg/injection, schedule: Q01DX009 (ip), vehicle: saline sonified 100 % of control | dose: 12.5 mg/kg/injection, schedule: Q04DX003 (ip), vehicle: Klucel (hydroxypropylcellulose) (HPC) 87 % of control

C/C=C/C=C\COC(=O)CC
inactive: dose: 100.0 mg/kg/injection, schedule: Q04DX002 (ip), vehicle: saline 103 % of control | dose: 200.0 mg/kg/injection, schedule: Q04DX002 (ip), vehicle: saline 100 % of control | dose: 400.0 mg/kg/injection, schedule: Q04DX002 (ip), vehicle: saline 103 % of control

COc1ccc(CC(=O)NCCc2ccc3c(c2)OCO3)cc1OC
inactive: [3] 89 % of control | [4] 91 % of control | [1] 92 % of control | [5] 92 % of control | [2] 96 % of control

FC(F)(F)c1ccc2c(c1)N(CCCN1CCN(CCN3CCOCC3)CC1)c1ccccc1S2
inactive: dose: 0.78 mg/kg/injection, schedule: Q01DX009 (ip), vehicle: saline 100 % of control | dose: 1.56 mg/kg/injection, schedule: Q01DX009 (ip), vehicle: saline 106 % of control | dose: 3.12 mg/kg/injection, schedule: Q01DX009 (ip), vehicle: saline 95 % of control | [6] 108 % of control | [7] 116 % of control

CCN(CC)CCn1c(CC23CC4CC(CC(C4)C2)C3)nc2cc([N+](=O)[O-])ccc21
inactive: [8] 90 % of control | [9] 98 % of control

CCN(CC)CC(=O)NCC(CCCCN1CCCC1)(c1cccc2ccccc12)C(C)C (stereo not drawn)
inactive: dose: 6.25 mg/kg/injection, schedule: Q04DX003 (ip), vehicle: saline 104 % of control | [6] 110 % of control | [7] 93 % of control

Cc1nc(N)nc(N)c1CCCCc1ccc(N)cc1
inactive: [8] 92 % of control | [9] 101 % of control

OC1C=Cc2ccccc21 (stereo not drawn)
inactive: dose: 100.0 mg/kg/injection, schedule: Q04DX002 (ip), vehicle: other 97 % of control | dose: 200.0 mg/kg/injection, schedule: Q04DX002 (ip), vehicle: other 97 % of control

O=C(Nc1cccc(F)c1)Nc1cc(C(F)(F)F)ccc1Cl
inactive: [3] 96 % of control | [4] 95 % of control and 97 % of control | [5] 96 % of control | [10] 88 % of control

CONCC(=O)c1ccc(SC)cc1
inactive: [11] 106 % of control | [12] 97 % of control | [13] 100 % of control

Cc1ccc([N+](=O)[O-])cc1NC(=O)Nc1nccs1
inactive: [14] 104 % of control | [15] 101 % of control | dose: 400.0 mg/kg/injection, schedule: Q01DX009 (ip), vehicle: Klucel (hydroxypropylcellulose) (HPC) 102 % of control

CN1CCSC1=S
inactive: [16] 92 % of control | [14] 100 % of control | dose: 100.0 mg/kg/injection, schedule: Q04DX003 (ip), vehicle: Klucel (hydroxypropylcellulose) (HPC) 105 % of control | [15] 105 % of control | dose: 200.0 mg/kg/injection, schedule: Q04DX003 (ip), vehicle: Klucel (hydroxypropylcellulose) (HPC) 105 % of control | dose: 400.0 mg/kg/injection, schedule: Q04DX003 (ip), vehicle: Klucel (hydroxypropylcellulose) (HPC) 94 % of control

CN(C(=O)c1ccccc1Cl)C(c1ccco1)P(=O)(c1ccccc1)c1ccccc1 (stereo not drawn)
inactive: [4] 93 % of control | dose: 100.0 mg/kg/injection, schedule: Q04DX002 (ip), vehicle: saline with Tween-80 93 % of control | [5] 90 % of control | dose: 200.0 mg/kg/injection, schedule: Q04DX002 (ip), vehicle: saline with Tween-80 90 % of control | [10] 87 % of control | dose: 400.0 mg/kg/injection, schedule: Q04DX002 (ip), vehicle: saline with Tween-80 90 % of control

Cc1cc2nc3c(=O)[nH]c(=O)nc-3n(CCOC(=O)CCC(=O)O)c2cc1C
inactive: [17] 116 % of control | [11] 103 % of control | [12] 114 % of control | [13] 103 % of control

Nc1nc(Nc2ccc(NC=O)cc2)c(NC=O)c(=O)[nH]1
inactive: [17] 89 % of control | [12] 86 % of control

NCC(=O)NO
inactive: dose: 75.0 mg/kg/injection, schedule: Q01DX009 (ip), vehicle: saline 99 % of control | dose: 90.0 mg/kg/injection, schedule: Q01DX015 (ip), vehicle: water 92 % of control | dose: 100.0 mg/kg/injection, schedule: Q04DX003 (ip), vehicle: saline 108 % of control | dose: 133.0 mg/kg/injection, schedule: Q01DX015 (ip), vehicle: water 94 % of control | dose: 150.0 mg/kg/injection, schedule: Q01DX009 (ip), vehicle: saline 99 % of control | dose: 200.0 mg/kg/injection, schedule: Q01DX015 (ip), vehicle: water 94 % of control | dose: 200.0 mg/kg/injection, schedule: Q04DX003 (ip), vehicle: saline 106 % of control | dose: 300.0 mg/kg/injection, schedule: Q01DX009 (ip), vehicle: saline 92 % of control | dose: 400.0 mg/kg/injection, schedule: Q04DX003 (ip), vehicle: saline 98 % of control

COc1ccc(OC)c(NC(=O)Nc2ccc(CCO)cc2)c1
inactive: dose: 100.0 mg/kg/injection, schedule: Q01DX009 (ip), vehicle: saline 99 % of control | dose: 200.0 mg/kg/injection, schedule: Q01DX009 (ip), vehicle: saline 102 % of control | dose: 400.0 mg/kg/injection, schedule: Q01DX009 (ip), vehicle: saline 103 % of control

NC(=S)N/N=C/c1ccccc1
inactive: dose: 75.0 mg/kg/injection, schedule: Q01DX001 (ip), vehicle: other 103 % of control | dose: 150.0 mg/kg/injection, schedule: Q01DX001 (ip), vehicle: other 105 % of control

OC(CC(O)(C(F)(F)F)C(F)(F)F)c1cccc(C(F)(F)F)c1 (stereo not drawn)
inactive: dose: 100.0 mg/kg/injection, schedule: Q01DX009 (ip), vehicle: other 96 % of control | dose: 100.0 mg/kg/injection, schedule: Q04DX003 (ip), vehicle: other 101 % of control | dose: 200.0 mg/kg/injection, schedule: Q01DX009 (ip), vehicle: other 96 % of control | dose: 400.0 mg/kg/injection, schedule: Q01DX009 (ip), vehicle: other 96 % of control | dose: 400.0 mg/kg/injection, schedule: Q04DX003 (ip), vehicle: other 92 % of control

C[N+](C)(C)Cc1ccccc1C=C(c1ccccc1)c1ccccc1
inactive: dose: 12.5 mg/kg/injection, schedule: Q01DX009 (ip), vehicle: Klucel (hydroxypropylcellulose) (HPC) 98 % of control | dose: 25.0 mg/kg/injection, schedule: Q01DX009 (ip), vehicle: Klucel (hydroxypropylcellulose) (HPC) 104 % of control | dose: 25.0 mg/kg/injection, schedule: Q04DX003 (ip), vehicle: Klucel (hydroxypropylcellulose) (HPC) 101 % of control | [16] 98 % of control | dose: 50.0 mg/kg/injection, schedule: Q04DX003 (ip), vehicle: Klucel (hydroxypropylcellulose) (HPC) 88 % of control

Nc1ccc2c(c1)/C(=N/O)c1cc(Br)ccc1-2
inactive: dose: 100.0 mg/kg/injection, schedule: Q01DX001 (ip), vehicle: carboxymethylcellulose (CMC) 110 % of control | dose: 200.0 mg/kg/injection, schedule: Q01DX001 (ip), vehicle: carboxymethylcellulose (CMC) 102 % of control | dose: 400.0 mg/kg/injection, schedule: Q01DX001 (ip), vehicle: carboxymethylcellulose (CMC) 100 % of control
